From patent publication US20190388362A1, “PHARMACEUTICAL COMPOSITION FOR TREATING ORAL PRECANCER AND METHOD FOR PREDICTING OR DIAGNOSING ORAL PRECANCER OR ORAL CANCER” (MET Life Sciences Co., Ltd., priority 2017, published 2019) come the findings set out here.

Experiment [1] deals with Axin2. The experiment in a line: Axin2 expression in cell lysate of colorectal cancer cells treated with HCA and BCA. The class given is cell-based. Conditions: at an nM level. An excerpt: (§1) According to the previous research results, it has been known that 2′-Hydroxycinnamaldehyde (HCA), which is a main component of cinnamon, and a derivative thereof, i.e., 2′-benzoyloxycinnamaldehyde (BCA) inhibit cancer metastasis through Snail expression inhibition by inhibiting LRP-1 receptors (Hwang H et al., J Neuroimmunol 2011, 230, 52-64; Ismail I A, et al., Breast Cancer Res Treat, 137, 697-708, 2013). Thus, to confirm whether HCA and BCA are capable of inhibiting Axin2 expression and Snail expression, colorectal cancer cells were treated with HCA and BCA, and it was examined whether Axin2 and Snail were expressed in a cell lysate. As HCA and BCA, those separated from cinnamon bark and purified were used (Hwang H et al., J Neuroimmunol 2011, 230, 52-64). As a result, as illustrated in FIGS. 11A and 11B, it was confirmed that HCA and BCA inhibited the expression of Axin2 and Snail at an nM level.

The test system of experiment [2] is Snail. The experiment is described as follows: Snail expression in cell lysate of colorectal cancer cells treated with HCA and BCA. Conditions: at an nM level. The class given is cell-based.
Source text: as §1

For experiment [3], the system named is Axin2. The experiment is described as follows: Western blotting of Axin2 in oral cancer and oral precancer cell lines. Conditions: YD-10B, KB and D38 cell lines, 16 hours. In kind it is cell-based. From the text:
(§2) The expression of Axin2 and Snail was confirmed in a cell lysate after treating YD-10B (CVCL-8929) and KB (CVC_L 0372), which are oral cancer cell lines, and D38, which is an oral precancer cell line (McGregor F. et al., CANCER RESEARCH 62, 4757-4766, 2002), with various concentrations of niclosamide by using the same method of Example 5.
(§3) For the YD-10B and KB cell lines, a RPMI1640 medium containing 10% FBS and 1% penicillin/streptomycin was used. For the oral precancer cell line D38, a DMEM: F12 (3:1) medium containing 10% FBS and 1% penicillin/streptomycin was used. The respective cells were treated with niclosamide at the indicated concentration for 16 hours and the expression of Axin2 and Snail was analyzed through western blotting.
Background: Immunoblotting shows a protein as a band on a membrane.

The subject of experiment [4] is oral precancer cell line D38. The experiment in a line: Soft agar colony formation assay, D38. The class given is cell-based. The following applies: 3 weeks, according to niclosamide treatment concentration. On the procedure: (§4) The oral precancer cell line D38 and the oral cancer cell line YD10B were cultured on soft agar plates containing various concentrations of niclosamide. The corresponding concentration of niclosamide was administered while the respective cells were cultured on the soft agar plates for 3 weeks.

Experiment [5] concerns Snail. The experiment is described as follows: Snail expression in colorectal cancer cell lines treated with niclosamide. In kind it is cell-based. The following applies: HCT116, SW480, SW620 and DLD-1 cells; niclosamide at an nM level.
In experiment [6] the target is T1, recombinant GSK3 beta / Axin peptide interaction (Homo sapiens, UniProt P49841).
T1 construct: made in house; host or cells: Sf9 insect cells (GSK3 beta); peptide chemically synthesized (Peptron)
The experiment in a line: Competitive inhibition of recombinant GSK3 binding to FITC-conjugated 19-mer Axin peptide (bead fluorescence). The following applies: in proportionate to the concentration of niclosamide added; 2 hours. An excerpt:
In the previously reported results of analyzing the structure of Axin-GSK3 binding, accumulation of the hydrophobic residues of Axin α-helix into a hydrophobic groove formed by the C-terminal loop of GSK3 is disclosed (Dajani R et al., EMBO J. 22:494-501, 2003), and thus the inventors of the present invention hypothesized that niclosamide would bind to the hydrophobic groove of GSK3 and interfere with the function of Axin. To verify this, in vitro analysis was designed to identify competitive inhibition of recombinant GSK3 binding to 19-mer FITC-conjugated Axin peptides by niclosamide.
Hig-tagged recombinant GSK3 beta was obtained from sf9 insect cells using a known method (Lee D G, et al. Nat Commun. 5:4423, 2014). The FITC-conjugated 19-mer Axin peptide (Axin1, 383-401, VEPQKFAEELIHRLEAVQR), which is known to bind to GSK3 as an amphipathic α-helix, was chemically synthesized (Peptron). To confirm competitive binding between the synthesized Axin peptide and niclosamide, His-tagged recombinant GSK3 and Ni—Ti beads were treated with niclosamide for 2 hours, and then washed three times with PBS, and quantitative fluorescence measurement was performed using Ni—Ti beads. Fluorescence intensity was represented in proportionate to the fluorescence intensity of a negative control from the 3rd experiment.

Experiment [7] relates to oral cancer cell line YD10B. The experiment is described as follows: Soft agar colony formation assay, YD10B. The class given is cell-based. The following applies: 3 weeks, according to niclosamide treatment concentration. On the procedure:
as §4

For experiment [8], the system named is Snail. The experiment in a line: Western blotting of Snail in oral cancer and oral precancer cell lines. In kind it is cell-based. Conditions: YD-10B, KB and D38 cell lines, 16 hours.
Source text: as §2, §3

Experiment [9] relates to oral precancer cell line D38. The experiment is described as follows: Migration assay (crystal violet), D38. The class given is cell-based. Conditions: niclosamide-concentration-dependent. The procedure: (§5) Cell migration is regulated by Axin2 and Snail. In the present example, the YD-10B cell line, the KB cell line, and the oral precancer cell line D38 were treated with niclosamide, a migration assay was performed thereon, and then the cells were stained with crystal violet and cell migration values were measured.

Experiment [10] concerns oral precancer cell line D38. The experiment in a line: Trypan exclusion assay for apoptosis. The following applies: D38, 72 hours, concentration-dependent. In kind it is cell-based. The procedure: The oral precancer cell line D38 was treated with various concentrations of niclosamide for 72 hours and apoptosis was confirmed through a trypan exclusion assay.
Experiment [11] has as its system oral precancer cell line D38. The experiment is described as follows: Cell growth by counting cells in real time, D38. The class given is cell-based. Conditions: as the concentration of niclosamide was increased. The procedure: (§6) The oral cancer cell lines YD-10B and KB and the oral precancer cell line D38 were treated with various concentrations of niclosamide, and cell growth was measured by counting cells in real time.

The next experiment concerns the target T2, Axin-GSK3 complex (Homo sapiens, UniProt P49841).
T2 construct: expressed in transfected cells; host or cells: MCF-7 (Axin2 transfected, doxycycline-induced; GSK3 endogenous)
The experiment in a line: Immunoprecipitation of His-tagged Axin2 from MCF-7 cell lysate, immunoblot for GSK3. The class given is binding. The following applies: MCF-7 cells with His-tagged Axin2, Triton X-100 lysate, Ni-Ti beads. The procedure:
To confirm whether niclosamide is capable of inhibiting Axin-GSK3 interaction, cell lysates with full-length Axin2 were examined to perform immunoprecipitation experiments in the presence or absence of niclosamide.
An immunoprecipitation assay was performed as follows (Yook J I, et al. Nat Cell Biol. 8:1398-1406, 2006).
A doxycycline-induced His-tagged Axin2 expression vector was transfected into MCF-7 cells (ATCC, American Type Culture collection) and cultured, and a Triton X-100 lysate of whole cells was treated with Ni—Ti beads (Invitrogen) and niclosamide at each concentration to allow a reaction to occur therebetween. Proteins recovered in the beads were subjected to SDS-PAGE, followed by immunoblot analysis for GSK3, and a 1/20 volume of a control was added thereto.

In experiment [12] the test system is oral cancer cell line YD-10B. The experiment is described as follows: Cell growth by counting cells in real time, YD-10B. The class given is cell-based. Conditions: as the concentration of niclosamide was increased. On the procedure:
as §6

The next experiment addresses recombinant GSK3β (Homo sapiens, UniProt P49841). The experiment in a line: Surface plasma resonance (SPR) analysis on immobilized recombinant GSK3β. In kind it is binding. The procedure:
Surface plasma resonance (SPR) analysis was performed to confirm whether niclosamide directly binds to GSK3. SPR was conducted using the ProteOn™ XPR36 Protein Interaction Array system (Bio-Rad Laboratories, Inc., CA, USA), and purified recombinant GSK3β, was immobilized to a ProteOn GLH sensor chip. Niclosamide or 19-mer wild type Axin peptide or mutant peptide (VEPQKAAEEAIHRAEAVQR, mutation underlined) were diluted by phosphate-buffered saline+Tween 20+1% DMSO at different concentrations and then flowed over the chip at a rate of 100 μl/min. The results thereof were analyzed by ProteOn Manager Software 2.0 using the standard Langmuir models for fitting kinetic data. The rate of complex formation was represented by the association constant (ka, in the unit of M-1s-1), and the rate of complex decay was represented by the dissociation constant (kd, in the unit of s-1), as given by Equation 1 below.
A high-affinity interaction is represented by a low dissociation constant, and rapid recognition and binding with interactants (rapid “on rate,” or high ka) and the stability of complex formation (slow “off rate,” or low kd) are as shown in the following equation: KD=kd/ka.

For another experiment, the system named is KB cell line. The experiment in a line: Migration assay (crystal violet), KB. In kind it is cell-based. Conditions: niclosamide-concentration-dependent. The procedure:
as §5

For experiment [13], the system named is oral cancer cells YD10B. The experiment in a line: 3D culture model, YD10B. In kind it is cell-based. Conditions: YD10B three-dimensionally cultured, 0.125 μM niclosamide.
The test system of experiment [14] is oral precancer cell line D38. The experiment in a line: 3D culture model on collagen sheet, D38. In kind it is cell-based. The following applies: 0.125 μM niclosamide. The procedure: To confirm the niclosamide treatment effect in a 3D culture model, the results of treatment with 0.125 μM niclosamide when the oral precancer cell line D38 was cultured on a collagen sheet are illustrated in FIG. 17, in part A thereof.

The test system of a further experiment is oral cancer cell line KB. The experiment is described as follows: Cell growth by counting cells in real time, KB. In kind it is cell-based. Conditions: as the concentration of niclosamide was increased. On the procedure:
as §6

The test system of another experiment is YD-10B cell line. The experiment is described as follows: Migration assay (crystal violet), YD-10B. The class given is cell-based. The following applies: niclosamide-concentration-dependent. On the procedure:
as §5

In experiment [15] the test system is Axin2. The experiment in a line: Axin2 expression in colorectal cancer cell lines treated with niclosamide. The class given is cell-based. Conditions: HCT116, SW480, SW620 and DLD-1 cells; niclosamide at an nM level.
The subject of experiment [16] is oral cancer cells YD10B. The experiment in a line: YD10B oral cancer cell transplant in immunodeficient mice. In kind it is in vivo. The following applies: 200 mg/kg (mpk), orally, daily; Balb/c athymic nude mice with YD10B cells. An excerpt: To confirm the effect of niclosamide on the inhibition of oral cancer in an animal model, oral cancer cells YD10B (3×10^6 cells) were transplanted to immunodeficient mice (Balb/c, athymic nude mice, NaraBiotech), the mice were divided into two groups, and then niclosamide was orally administered to the two groups daily.

recombinant GSK3β, sequence (P49841 whole entry): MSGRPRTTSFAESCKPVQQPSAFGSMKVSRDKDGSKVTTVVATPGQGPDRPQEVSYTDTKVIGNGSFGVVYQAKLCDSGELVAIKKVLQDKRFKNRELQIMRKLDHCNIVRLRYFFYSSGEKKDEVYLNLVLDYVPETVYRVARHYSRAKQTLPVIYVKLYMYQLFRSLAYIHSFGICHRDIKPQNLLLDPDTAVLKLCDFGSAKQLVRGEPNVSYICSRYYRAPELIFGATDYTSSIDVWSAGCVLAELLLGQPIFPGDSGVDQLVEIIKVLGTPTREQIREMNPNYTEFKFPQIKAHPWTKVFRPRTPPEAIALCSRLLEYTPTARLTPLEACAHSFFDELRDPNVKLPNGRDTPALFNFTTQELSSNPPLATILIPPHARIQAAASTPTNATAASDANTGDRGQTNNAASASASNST
T1 sequence (P49841 whole entry): as above
T2 sequence (P49841 whole entry, one chain of several): as the sequence (P49841 whole entry) above

Consider `O=CC=Cc1ccccc1OC(=O)c1ccccc1` [BCA, 2′-benzoyloxycinnamaldehyde], for which the “expression of Axin2” value in the experiment with Axin2 [1] was “inhibited”. Further, the “expression of Snail” value in the experiment with Snail [2] is on record as “inhibited”.
Turning to `O=CC=Cc1ccccc1O` [HCA, 2′-Hydroxycinnamaldehyde], in the experiment with Axin2 [1], the “expression of Axin2” value is “inhibited”. In the experiment on Snail [2], the “expression of Snail” value is “inhibited”.
Consider `O=C(Nc1ccc([N+](=O)[O-])cc1Cl)c1cc(Cl)ccc1O` [niclosamide], for which the “expression of Axin2” value with Axin2 [3] was “inhibited”. Also, the colony formation result in [4] and in experiment [7] was “inhibited” each time. The Snail expression entry with Snail [5] was “decreased”. Also, the “interaction between the recombinant GSK3 and the synthesized Axin peptide” value in experiment [6] is “inhibited”. Besides, the “expression of Snail” value in the experiment on Snail [8] is “inhibited”. For the same compound, the cell migration entry (in [9]; with KB cell line; in the experiment on YD-10B cell line) was “inhibited” in each case. The apoptosis result in experiment [10] is recorded as “occurred”. The cell growth result (in experiment [11]; in experiment [12]; with oral cancer cell line KB) was “inhibited” in each case. For the same compound, the “GSK3 that binds to Axin2 in a total cell lysate” value at Axin-GSK3 complex is on record as “reduced”. Also, the “direct binding to GSK3” value on recombinant GSK3β is given as “directly bound”. Also, the Kd – broadly, the concentration at which binding is half-saturated – on recombinant GSK3β (GSK3β immobilized on sensor chip, read-out: equilibrium dissociation constant KD) was 34 µM. In the experiment with oral cancer cells YD10B [13], the “invasiveness of cancer cells” value is “rapidly reduced”. Besides, the cell density entry in experiment [14] is “reduced”. Besides, the keratinocytic differentiation entry in [14] was “induced”. Besides, the basal membrane entry in experiment [14] (destroyed in control) was “smooth basal membrane was observed”. Further, the Axin2 expression result in the experiment on Axin2 [15] is recorded as “decreased”. For the same compound, in the experiment on oral cancer cells YD10B [16], the volume of tumors result is on record as “reduced”.
As to `CC[C@H](C)[C@H](NC(=O)[C@H](CC(C)C)NC(=O)[C@H](CCC(=O)O)NC(=O)[C@H](CCC(=O)O)NC(=O)[C@H](C)NC(=O)[C@H](Cc1ccccc1)NC(=O)[C@H](CCCCN)NC(=O)[C@H](CCC(N)=O)NC(=O)[C@@H]1CCCN1C(=O)[C@H](CCC(=O)O)NC(=O)[C@@H](N)C(C)C)C(=O)N[C@@H](Cc1c[nH]cn1)C(=O)N[C@@H](CCCNC(=N)N)C(=O)N[C@@H](CC(C)C)C(=O)N[C@@H](CCC(=O)O)C(=O)N[C@@H](C)C(=O)N[C@H](C(=O)N[C@@H](CCC(N)=O)C(=O)N[C@@H](CCCNC(=N)N)C(=O)O)C(C)C` [wild type Axin peptide], the “direct binding to GSK3” value at recombinant GSK3β is on record as “directly bound”.
As to “Mutant Axin peptide: mutant 19-mer Axin peptide VEPQKAAEEAIHRAEAVQR, mutations on hydrophobic residues”, the “binding to GSK3 protein immobilized on a sensor surface” value with recombinant GSK3β (up to 100 μM) was “unable to bind”.
